The compounds below were run on Chinese sprangletop (assay: Test Example 3: herbicidal effect by foliage application, Wagner pot (Table 18, symbol D)). Conditions: 320 g/ha.
Assay type: in vivo, chinese sprangletop (Leptochloa chinensis)
How it was run: (§1)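 Plants were sown in alluvial soil held under 0.1–0.5 cm standing water and grown 14 days in a greenhouse at 25–30 °C. An emulsifiable formulation, water-diluted to the set dose, was then sprayed onto the foliage, and effects were scored three weeks later using previously defined criteria.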

Structure (SMILES) | herbicidal effect on D (Chinese sprangletop), rating 0-5
CCCC(=O)Oc1c(C)nn(C)c(=O)c1-c1c(-c2ccc(OCC)cc2)sc2ccccc12 [1-014] | 0 (Herbicidal rate of 5% or less (almost no effect))
CCCOc1ccccc1-c1sc2ccccc2c1-c1c(O)c(C)nn(C)c1=O [1-015] | 3 (Herbicidal rate of 40% or more and less than 70%)

These compounds were tested on southern crabgrass (assay: Test Example 4: herbicidal effect by soil treatment (Table 19, symbol F)). Conditions: amount of applied herbicide 320 g/ha.
Assay type: in vivo, southern crabgrass (Digitaria ciliaris)
How it was run: (§2)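 Applied as a water-diluted emulsion, the compound was sprayed onto soil covering newly sown seeds. Evaluation came three weeks after application, in a greenhouse held at 25° C. to 30° C.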

Structure (SMILES) | herbicidal effect rating, F: southern crabgrass
CCCC(=O)Oc1c(C)nn(C)c(=O)c1-c1c(-c2ccc(OCC)cc2)sc2ccccc12 [1-014] | 0 (Herbicidal rate of 5% or less (almost no effect))
CCCOc1ccccc1-c1sc2ccccc2c1-c1c(O)c(C)nn(C)c1=O [1-015] | 3 (Herbicidal rate of 40% or more and less than 70%)

The compounds below were run on lambsquarters (assay: Test Example 5: herbicidal effect by foliage application, plastic box (Table 20, symbol O)). Conditions: foliage application, 320 g/ha, three weeks after application.
Assay type: in vivo, lambsquarters (Chenopodium album)
How it was run: (§3)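 Sow seeds spot-wise in sterilized diluvial soil; cover with ~1.5 cm soil. Grow 14 days in greenhouse, 25° C. to 30° C. Spray foliage with emulsion diluted to predetermined amount. Rate effect after 3 weeks.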

Structure (SMILES) | herbicidal effect grade, O: lambsquarters
CCCC(=O)Oc1c(C)nn(C)c(=O)c1-c1c(-c2ccc(OCC)cc2)sc2ccccc12 [1-014] | 2 (Herbicidal rate of 20% or more and less than 40%)
CCCOc1ccccc1-c1sc2ccccc2c1-c1c(O)c(C)nn(C)c1=O [1-015] | 0 (Herbicidal rate of 5% or less (almost no effect))

The compounds below were run on persian speedwell (assay: Test Example 4: herbicidal effect by soil treatment (Table 19, symbol R)). Conditions: amount of applied herbicide 320 g/ha.
Assay type: in vivo, Persian speedwell (Veronica persica)
How it was run: as §2

Structure (SMILES) | herbicidal effect rating, R: persian speedwell
CCCC(=O)Oc1c(C)nn(C)c(=O)c1-c1c(-c2ccc(OCC)cc2)sc2ccccc12 [1-014] | 5 (Herbicidal rate of 90% or more (almost completely withered))
CCCOc1ccccc1-c1sc2ccccc2c1-c1c(O)c(C)nn(C)c1=O [1-015] | 4 (Herbicidal rate of 70% or more and less than 90%)

What follows are compounds tested on lambsquarters (assay: Test Example 4: herbicidal effect by soil treatment (Table 19, symbol O)). Conditions: amount of applied herbicide 320 g/ha.
Assay type: in vivo, lambsquarters (Chenopodium album)
How it was run: as §2

Structure (SMILES) | herbicidal effect rating, O: lambsquarters
CCCC(=O)Oc1c(C)nn(C)c(=O)c1-c1c(-c2ccc(OCC)cc2)sc2ccccc12 [1-014] | 2 (Herbicidal rate of 20% or more and less than 40%)
CCCOc1ccccc1-c1sc2ccccc2c1-c1c(O)c(C)nn(C)c1=O [1-015] | 0 (Herbicidal rate of 5% or less (almost no effect))

Each compound was assayed on blackgrass (assay: Test Example 5: herbicidal effect by foliage application, plastic box (Table 20, symbol J)). Conditions: foliage application, 320 g/ha, three weeks after application.
Assay type: in vivo, blackgrass (Alopecurus myosuroides)
How it was run: as §3

Structure (SMILES) | herbicidal effect grade, J: blackgrass
CCCC(=O)Oc1c(C)nn(C)c(=O)c1-c1c(-c2ccc(OCC)cc2)sc2ccccc12 [1-014] | 0 (Herbicidal rate of 5% or less (almost no effect))
CCCOc1ccccc1-c1sc2ccccc2c1-c1c(O)c(C)nn(C)c1=O [1-015] | 5 (Herbicidal rate of 90% or more (almost completely withered))

These compounds were tested on late watergrass (assay: Test Example 2: herbicidal activity, application during weed generation under submerged conditions (Table 17, symbol A)). Conditions: AAH 320 g/ha; application during weed generation, submerged conditions.
Assay type: in vivo, late watergrass (Echinochloa oryzicola)
How it was run: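 Steps: fill Wagner pots with alluvial soil; add water to give 4 cm depth; sow the species mixed; grow under glass at 25–30° C.; at 1–2 leaves apply water-diluted emulsion formulation to the water surface at a fixed herbicide amount; score after 3 weeks.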

Structure (SMILES) | herbicidal effect rating, A: late watergrass
CCCC(=O)Oc1c(C)nn(C)c(=O)c1-c1c(-c2ccc(OCC)cc2)sc2ccccc12 [1-014] | 3 (Herbicidal rate of 40% or more and less than 70%)
CCCOc1ccccc1-c1sc2ccccc2c1-c1c(O)c(C)nn(C)c1=O [1-015] | 3 (Herbicidal rate of 40% or more and less than 70%)

The compounds below were run on Italian ryegrass (assay: Test Example 5: herbicidal effect by foliage application, plastic box (Table 20, symbol K)). Conditions: foliage application, 320 g/ha, three weeks after application.
Assay type: in vivo, Italian ryegrass (Lolium multiflorum)
How it was run: as §3

Structure (SMILES) | herbicidal effect grade, K: Italian ryegrass
CCCC(=O)Oc1c(C)nn(C)c(=O)c1-c1c(-c2ccc(OCC)cc2)sc2ccccc12 [1-014] | 3 (Herbicidal rate of 40% or more and less than 70%)
CCCOc1ccccc1-c1sc2ccccc2c1-c1c(O)c(C)nn(C)c1=O [1-015] | 4 (Herbicidal rate of 70% or more and less than 90%)

What follows are compounds tested on Italian ryegrass (assay: Test Example 4: herbicidal effect by soil treatment (Table 19, symbol K)). Conditions: amount of applied herbicide 320 g/ha.
Assay type: in vivo, Italian ryegrass (Lolium multiflorum)
How it was run: as §2

Structure (SMILES) | herbicidal effect rating, K: Italian ryegrass
CCCC(=O)Oc1c(C)nn(C)c(=O)c1-c1c(-c2ccc(OCC)cc2)sc2ccccc12 [1-014] | 0 (Herbicidal rate of 5% or less (almost no effect))
CCCOc1ccccc1-c1sc2ccccc2c1-c1c(O)c(C)nn(C)c1=O [1-015] | 0 (Herbicidal rate of 5% or less (almost no effect))

These compounds were tested on velvetleaf (assay: Test Example 4: herbicidal effect by soil treatment (Table 19, symbol M)). Conditions: amount of applied herbicide 320 g/ha.
Assay type: in vivo, velvetleaf (Abutilon theophrasti)
How it was run: as §2

Structure (SMILES) | herbicidal effect rating, M: velvetleaf
CCCC(=O)Oc1c(C)nn(C)c(=O)c1-c1c(-c2ccc(OCC)cc2)sc2ccccc12 [1-014] | 0 (Herbicidal rate of 5% or less (almost no effect))
CCCOc1ccccc1-c1sc2ccccc2c1-c1c(O)c(C)nn(C)c1=O [1-015] | 0 (Herbicidal rate of 5% or less (almost no effect))

Each compound was assayed on redroot pigweed (assay: Test Example 5: herbicidal effect by foliage application, plastic box (Table 20, symbol N)). Conditions: foliage application, 320 g/ha, three weeks after application.
Assay type: in vivo, redroot pigweed (Amaranthus retroflexus)
How it was run: as §3

Structure (SMILES) | herbicidal effect grade, N: redroot pigweed
CCCC(=O)Oc1c(C)nn(C)c(=O)c1-c1c(-c2ccc(OCC)cc2)sc2ccccc12 [1-014] | 0 (Herbicidal rate of 5% or less (almost no effect))
CCCOc1ccccc1-c1sc2ccccc2c1-c1c(O)c(C)nn(C)c1=O [1-015] | 3 (Herbicidal rate of 40% or more and less than 70%)

Each compound was assayed on velvetleaf (assay: Test Example 5: herbicidal effect by foliage application, plastic box (Table 20, symbol M)). Conditions: foliage application, 320 g/ha, three weeks after application.
Assay type: in vivo, velvetleaf (Abutilon theophrasti)
How it was run: as §3

Structure (SMILES) | herbicidal effect grade, M: velvetleaf
CCCC(=O)Oc1c(C)nn(C)c(=O)c1-c1c(-c2ccc(OCC)cc2)sc2ccccc12 [1-014] | 4 (Herbicidal rate of 70% or more and less than 90%)
CCCOc1ccccc1-c1sc2ccccc2c1-c1c(O)c(C)nn(C)c1=O [1-015] | 5 (Herbicidal rate of 90% or more (almost completely withered))

Each compound was assayed on barnyard grass (assay: Test Example 3: herbicidal effect by foliage application, Wagner pot (Table 18, symbol H)). Conditions: 320 g/ha.
Assay type: in vivo, barnyard grass (Echinochloa crus-galli)
How it was run: as §1

Structure (SMILES) | herbicidal effect on H (barnyard grass), rating 0-5
CCCC(=O)Oc1c(C)nn(C)c(=O)c1-c1c(-c2ccc(OCC)cc2)sc2ccccc12 [1-014] | 4 (Herbicidal rate of 70% or more and less than 90%)
CCCOc1ccccc1-c1sc2ccccc2c1-c1c(O)c(C)nn(C)c1=O [1-015] | 5 (Herbicidal rate of 90% or more (almost completely withered))

What follows are compounds tested on windgrass (assay: Test Example 4: herbicidal effect by soil treatment (Table 19, symbol L)). Conditions: amount of applied herbicide 320 g/ha.
Assay type: in vivo, windgrass (Apera spica-venti)
How it was run: as §2

Structure (SMILES) | herbicidal effect rating, L: windgrass
CCCC(=O)Oc1c(C)nn(C)c(=O)c1-c1c(-c2ccc(OCC)cc2)sc2ccccc12 [1-014] | 0 (Herbicidal rate of 5% or less (almost no effect))
CCCOc1ccccc1-c1sc2ccccc2c1-c1c(O)c(C)nn(C)c1=O [1-015] | 5 (Herbicidal rate of 90% or more (almost completely withered))

Each compound was assayed on late watergrass (assay: Test Example 1: herbicidal activity, application before weed generation under submerged conditions (Table 16, symbol A)). Conditions: 320 g/ha applied herbicide.
Assay type: in vivo, late watergrass (Echinochloa oryzicola)
How it was run: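 Submerged Wagner pots (alluvial soil, 4 cm water) sown with weed seeds and planted with 2.5-leaf rice seedlings; emulsifiable concentrate diluted in water applied to water surface on sowing day. Held in greenhouse at 25-30 °C; injury scored 0-5 by herbicidal rate after three weeks.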

Structure (SMILES) | Herbicidal effect on A: late watergrass (grade 0-5)
CCCC(=O)Oc1c(C)nn(C)c(=O)c1-c1c(-c2ccc(OCC)cc2)sc2ccccc12 [1-014] | 5 (Herbicidal rate of 90% or more (almost completely withered))
CCCOc1ccccc1-c1sc2ccccc2c1-c1c(O)c(C)nn(C)c1=O [1-015] | 3 (Herbicidal rate of 40% or more and less than 70%)

The compounds below were run on blackgrass (assay: Test Example 4: herbicidal effect by soil treatment (Table 19, symbol J)). Conditions: amount of applied herbicide 320 g/ha.
Assay type: in vivo, blackgrass (Alopecurus myosuroides)
How it was run: as §2

Structure (SMILES) | herbicidal effect rating, J: blackgrass
CCCC(=O)Oc1c(C)nn(C)c(=O)c1-c1c(-c2ccc(OCC)cc2)sc2ccccc12 [1-014] | 0 (Herbicidal rate of 5% or less (almost no effect))
CCCOc1ccccc1-c1sc2ccccc2c1-c1c(O)c(C)nn(C)c1=O [1-015] | 4 (Herbicidal rate of 70% or more and less than 90%)

— patent US20230085307A1, “PYRIDAZINONE COMPOUND AND HERBICIDE” (NISSAN CHEMICAL CORPORATION, priority 2019, published 2023)
